# Measured values taken from PMC7136958, “Targeting the pregnane X receptor using microbial metabolite mimicry” (EMBO Molecular Medicine, 2020).
# “And” between values parts separate entries of the source, which are not always exact repeats. Identical values can stand only once.
# Tests used:
# [1] = system: S. typhimurium 14038; experiment: Salmonella invasion (gentamicin protection assay) in Caco-2 monolayers; format: cell-based, Salmonella typhimurium; details: for cytokine-induced salmonella invasion: 10 and 25 μM, vs cytokines only; for Salmonella CFU/ml: Caco-2 cells, triplicate
# Method: FKK compounds were tested for their ability to prevent Salmonella invasion in vitro in non‐inflamed and inflamed cell cultures. Overnight cultures of S. typhimurium 14038 were diluted to OD600 0.01 and injected into with HIOs or immersed over Caco‐2 monolayers for 1 h at 37°C. The invasive ability of Salmonella was assessed using the gentamicin protection assay (Gagnon et al, 2013). Bacterial adhesion scenarios to the Caco‐2 surface were set up as described above. Non‐adhered bacteria were removed by washing twice in PBS, followed by incubation with 1 ml gentamicin (150 μg/ml in DMEM) for 1 h at 37°C to kill the adhered extracellular bacteria. Dead bacteria were removed by washing twice in PBS, followed by incubation with 500 μl 0.1% Triton X‐100 for 15 min at 37°C to lyse the HIOs and Caco‐2, and release the intracellular (invaded) bacteria. Serial fold dilutions and plating were then employed to determine CFU/ml. We normalized to total protein using Bradford assay.
# [2] = system: NF-κB; experiment: TNF-α-induced NF-κB reporter assay in LS180 cells with or without PXR co-transfection; format: cell-based, human; details: for TNF-α-induced NF-κB reporter activity: 0.1 to 25 μM, PXR-untransfected and PXR-transfected cells
# Method: NF‐κB reporter assays were performed using LS180 cells. […] Thereafter, cells were lysed, and Nano luciferase activity was measured using a Tecan Infinite M200 Pro plate reader (Schoeller Instruments, Czech Republic).
# [3] = system: CYP1A1, CYP3A4, MDR1 mRNA in primary human hepatocytes; experiment: qRT-PCR of CYP1A1, CYP3A4, MDR1 mRNA in primary human hepatocytes (four donors); details: for CYP1A1 mRNA fold to C / CYP3A4 mRNA fold to C / MDR-1 mRNA fold to C: primary human hepatocytes donor Hep200538, fold to UT control; for CYP1A1 mRNA fold to C / CYP3A4 mRNA fold to C / MDR-1 mRNA fold to C / CYP1A1 (1A1) mRNA, fold to C / CYP3A4 (3A4) mRNA, fold to C / MDR1 mRNA fold to C / MDR-1 mRNA, fold to C: normalised to GAPDH; for CYP1A1 (1A1) mRNA, fold to C / CYP3A4 (3A4) mRNA, fold to C / MDR1 mRNA fold to C / MDR-1 mRNA, fold to C: primary human hepatocytes, fold vs untreated (UT)
# Method: Cells or primary human hepatocytes from four different donors (HEP200529, HEP220932, HEP200533, and HEP200538) were incubated for 24 h with test compounds; the vehicle was DMSO (0.1% v/v). Total RNA was isolated using TRI Reagent® (Molecular Research Center, Ohio, USA). cDNA was synthesized from 1,000 ng of total RNA using M‐MuLV Reverse Transcriptase (New England Biolabs, Ipswich, Massachusetts, USA) at 42°C for 60 min in the presence of random hexamers (New England Biolabs). Quantitative reverse transcriptase–polymerase chain reaction (qRT–PCR) was performed using LightCycler® 480 Probes Master on a LightCycler® 480 II apparatus (Roche Diagnostic Corporation).
# The following protocol was used: An activation step at 95°C for 10 min was followed by 45 cycles of PCR (denaturation at 95°C for 10 s; annealing with elongation at 60°C for 30 s). The measurements were performed in triplicate. Gene expression was normalized per GAPDH as a housekeeping gene. […] Data are expressed as fold induction ± SD over the vehicle‐treated cells. The bar graph depicts one representative experiment of a series of experiments performed in three consecutive passages of cells. Differences were tested using one‐way ANOVA with Dunnett's post hoc test, and P < 0.05 was considered significant.
# [4] = compound 10µm, no cytokines, 6 hr
# [5] = compound 10µm, no cytokines, 12 hr
# [6] = compound 25µm, no cytokines, 6 hr
# [7] = cytokines + compound 10µm, 6 hr
# [8] = cytokines + compound 25µm, 6 hr
# [9] = cytokines + compound 25µm, 12 hr
# [10] = NFkB transfected LS180 cells, 8th pass, EXP1, 0,1 uM + TNFa 5 ng/ml
# [11] = NFkB transfected LS180 cells, 8th pass, EXP1, 1 uM + TNFa 5 ng/ml
# [12] = NFkB transfected LS180 cells, 8th pass, EXP1, 10 uM + TNFa 5 ng/ml
# [13] = NFkB transfected LS180 cells, 8th pass, EXP1, 25 uM + TNFa 5 ng/ml
# [14] = NFkB transfected LS180 cells, 13th pass, EXP2, 0,1 uM + TNFa 5 ng/ml
# [15] = NFkB transfected LS180 cells, 13th pass, EXP2, 1 uM + TNFa 5 ng/ml
# [16] = NFkB transfected LS180 cells, 13th pass, EXP2, 10 uM + TNFa 5 ng/ml
# [17] = NFkB transfected LS180 cells, 13th pass, EXP2, 25 uM + TNFa 5 ng/ml
# [18] = NFkB+PXR transfected LS180 cells, 8th pass, EXP1, 0,1 uM + TNFa 5 ng/ml
# [19] = NFkB+PXR transfected LS180 cells, 8th pass, EXP1, 1 uM + TNFa 5 ng/ml
# [20] = NFkB+PXR transfected LS180 cells, 8th pass, EXP1, 10 uM + TNFa 5 ng/ml
# [21] = NFkB+PXR transfected LS180 cells, 8th pass, EXP1, 25 uM + TNFa 5 ng/ml
# [22] = NFkB+PXR transfected LS180 cells, 13th pass, EXP2, 0,1 uM + TNFa 5 ng/ml
# [23] = NFkB+PXR transfected LS180 cells, 13th pass, EXP2, 1 uM + TNFa 5 ng/ml
# [24] = NFkB+PXR transfected LS180 cells, 13th pass, EXP2, 10 uM + TNFa 5 ng/ml
# [25] = NFkB+PXR transfected LS180 cells, 13th pass, EXP2, 25 uM + TNFa 5 ng/ml
smiles,measurement,setting,value
"O=C(c1ccncc1)c1cc2ccccc2n1S(=O)(=O)c1ccccc1 [FKK5, (1-(phenylsulfonyl)-1H-indol-2-yl)(pyridin-4-yl)methanone]",cytokine-induced salmonella invasion,[1],significantly decreased
same,Salmonella CFU/ml,[1]; [4],5980 CFU/ml and 4820 CFU/ml and 5870 CFU/ml
same,Salmonella CFU/ml,[1]; [5],5920 CFU/ml and 4240 CFU/ml and 5520 CFU/ml
same,Salmonella CFU/ml,[1]; [6],4940 CFU/ml and 4950 CFU/ml and 4400 CFU/ml
same,Salmonella CFU/ml,[1]; [7],5800 CFU/ml and 5710 CFU/ml and 4100 CFU/ml
same,Salmonella CFU/ml,"[1]; cytokines + compound 10µm, 12 hr",2240 CFU/ml and 4480 CFU/ml and 4320 CFU/ml
same,Salmonella CFU/ml,[1]; [8],3700 CFU/ml and 3900 CFU/ml and 3270 CFU/ml
same,Salmonella CFU/ml,[1]; [9],3040 CFU/ml and 3240 CFU/ml and 2560 CFU/ml
same,"salmonella invasion, compound alone",[1]; no cytokines,No significant effect
same,TNF-α-induced NF-κB reporter activity,[2],significantly reduced
same,"NFkB reporter luminescence, aver",[2]; [10],154648.3
same,"NFkB reporter, % max",[2]; [10],100.0%
same,"NFkB reporter luminescence, aver",[2]; [11],174112.0
same,"NFkB reporter, % max",[2]; [11],112.6%
same,"NFkB reporter luminescence, aver",[2]; [12],177548.0
same,"NFkB reporter, % max",[2]; [12],114.8%
same,"NFkB reporter luminescence, aver",[2]; [13],128563.8
same,"NFkB reporter, % max",[2]; [13],83.1%
same,"NFkB reporter luminescence, aver",[2]; [14],96416.5
same,"NFkB reporter, % max",[2]; [14],100.0%
same,"NFkB reporter luminescence, aver",[2]; [15],100061.8
same,"NFkB reporter, % max",[2]; [15],103.8%
same,"NFkB reporter luminescence, aver",[2]; [16],94755.5
same,"NFkB reporter, % max",[2]; [16],98.3%
same,"NFkB reporter luminescence, aver",[2]; [17],73575.7
same,"NFkB reporter, % max",[2]; [17],76.3%
same,"NFkB reporter luminescence, aver",[2]; [18],119827.8
same,"NFkB reporter, % max",[2]; [18],100.0%
same,"NFkB reporter luminescence, aver",[2]; [19],119180.5
same,"NFkB reporter, % max",[2]; [19],99.5%
same,"NFkB reporter luminescence, aver",[2]; [20],105570.7
same,"NFkB reporter, % max",[2]; [20],88.1%
same,"NFkB reporter luminescence, aver",[2]; [21],87454.8
same,"NFkB reporter, % max",[2]; [21],73.0%
same,"NFkB reporter luminescence, aver",[2]; [22],54048.0
same,"NFkB reporter, % max",[2]; [22],100.0%
same,"NFkB reporter luminescence, aver",[2]; [23],44601.5
same,"NFkB reporter, % max",[2]; [23],82.5%
same,"NFkB reporter luminescence, aver",[2]; [24],31230.0
same,"NFkB reporter, % max",[2]; [24],57.8%
same,"NFkB reporter luminescence, aver",[2]; [25],30160.0
same,"NFkB reporter, % max",[2]; [25],55.8%
same,CYP1A1 mRNA induction,[3]; four donors,did not
same,CYP1A1 mRNA fold to C,[3],1.13
same,CYP3A4 mRNA fold to C,[3],0.84
same,MDR-1 mRNA fold to C,[3],0.52
same,"CYP1A1 (1A1) mRNA, fold to C",[3]; donor Hep200529,1.12 fold
same,"CYP3A4 (3A4) mRNA, fold to C",[3]; donor Hep200529,0.73 fold
same,MDR1 mRNA fold to C,[3]; donor Hep200529,0.93 fold
same,"CYP1A1 (1A1) mRNA, fold to C",[3]; donor Hep200533,1.51 fold
same,"CYP3A4 (3A4) mRNA, fold to C",[3]; donor Hep200533,1.03 fold
same,"MDR-1 mRNA, fold to C",[3]; donor Hep200533,1.05 fold
same,"CYP1A1 (1A1) mRNA, fold to C",[3]; donor Hep220932,0.39 fold
same,"CYP3A4 (3A4) mRNA, fold to C",[3]; donor Hep220932,0.50 fold
same,"MDR-1 mRNA, fold to C",[3]; donor Hep220932,0.35 fold
C#CCC(O)(c1ccncc1)c1cc2ccccc2n1S(=O)(=O)c1ccccc1 (stereo not shown) [FKK6],cytokine-induced salmonella invasion,[1],significantly decreased
same,Salmonella CFU/ml,[1]; [4],3008 CFU/ml and 3000 CFU/ml and 1800 CFU/ml
same,Salmonella CFU/ml,[1]; [5],1840 CFU/ml and 3520 CFU/ml and 2960 CFU/ml
same,Salmonella CFU/ml,[1]; [6],2076 CFU/ml and 2290 CFU/ml and 2980 CFU/ml
same,Salmonella CFU/ml,"[1]; compound 25µm, no cytokines, 12 hr",1360 CFU/ml and 2480 CFU/ml and 2320 CFU/ml
same,Salmonella CFU/ml,[1]; [7],2276 CFU/ml and 2820 CFU/ml and 1500 CFU/ml
same,Salmonella CFU/ml,[1]; [8],1940 CFU/ml and 1870 CFU/ml and 1600 CFU/ml
same,Salmonella CFU/ml,[1]; [9],2520 CFU/ml and 1360 CFU/ml
same,"salmonella invasion, compound alone",[1]; no cytokines,No significant effect
same,TNF-α-induced NF-κB reporter activity,[2],significantly reduced
same,"NFkB reporter luminescence, aver",[2]; [10],151491.7
same,"NFkB reporter, % max",[2]; [10],100.0%
same,"NFkB reporter luminescence, aver",[2]; [11],188054.3
same,"NFkB reporter, % max",[2]; [11],124.1%
same,"NFkB reporter luminescence, aver",[2]; [12],206680.7
same,"NFkB reporter, % max",[2]; [12],136.4%
same,"NFkB reporter luminescence, aver",[2]; [13],153657.3
same,"NFkB reporter, % max",[2]; [13],101.4%
same,"NFkB reporter luminescence, aver",[2]; [14],110498.5
same,"NFkB reporter, % max",[2]; [14],100.0%
same,"NFkB reporter luminescence, aver",[2]; [15],114693.5
same,"NFkB reporter, % max",[2]; [15],103.8%
same,"NFkB reporter luminescence, aver",[2]; [16],113662.5
same,"NFkB reporter, % max",[2]; [16],102.9%
same,"NFkB reporter luminescence, aver",[2]; [17],88975.5
same,"NFkB reporter, % max",[2]; [17],80.5%
same,"NFkB reporter luminescence, aver",[2]; [18],128584.0
same,"NFkB reporter, % max",[2]; [18],100.0%
same,"NFkB reporter luminescence, aver",[2]; [19],112418.0
same,"NFkB reporter, % max",[2]; [19],87.4%
same,"NFkB reporter luminescence, aver",[2]; [20],100484.8
same,"NFkB reporter, % max",[2]; [20],78.1%
same,"NFkB reporter luminescence, aver",[2]; [21],94342.8
same,"NFkB reporter, % max",[2]; [21],73.4%
same,"NFkB reporter luminescence, aver",[2]; [22],50028.3
same,"NFkB reporter, % max",[2]; [22],100.0%
same,"NFkB reporter luminescence, aver",[2]; [23],38521.5
same,"NFkB reporter, % max",[2]; [23],77.0%
same,"NFkB reporter luminescence, aver",[2]; [24],24979.3
same,"NFkB reporter, % max",[2]; [24],49.9%
same,"NFkB reporter luminescence, aver",[2]; [25],26644.5
same,"NFkB reporter, % max",[2]; [25],53.3%
same,CYP1A1 mRNA induction,[3]; four donors,did not
same,CYP3A4 mRNA induction,[3]; four donors,more than twofold induction in one of four hepatocyte samples
same,MDR1 mRNA induction,[3]; four donors,MDR1 mRNA induction in one of four hepatocyte samples
same,CYP1A1 mRNA fold to C,[3],15.94
same,CYP3A4 mRNA fold to C,[3],6.17
same,MDR-1 mRNA fold to C,[3],0.95
same,"CYP1A1 (1A1) mRNA, fold to C",[3]; donor Hep200529,6.44 fold
same,"CYP3A4 (3A4) mRNA, fold to C",[3]; donor Hep200529,2.67 fold
same,MDR1 mRNA fold to C,[3]; donor Hep200529,1.52 fold
same,"CYP1A1 (1A1) mRNA, fold to C",[3]; donor Hep200533,3.26 fold
same,"CYP3A4 (3A4) mRNA, fold to C",[3]; donor Hep200533,2.13 fold
same,"MDR-1 mRNA, fold to C",[3]; donor Hep200533,2.03 fold
same,"CYP1A1 (1A1) mRNA, fold to C",[3]; donor Hep220932,0.76 fold
same,"CYP3A4 (3A4) mRNA, fold to C",[3]; donor Hep220932,0.97 fold
same,"MDR-1 mRNA, fold to C",[3]; donor Hep220932,0.40 fold
